Source: patent US8410278B2, “Method for preparing a non-hydratable crystal form” (E I du Pont de Nemours and Company, priority 2008, dated 2013)

Columns and labels:
[1] = format: physicochemical
From the text: Remarkably water is now discovered to work very well as a solvent in the heated liquid phase for converting Polymorph B to Polymorph A. This is particularly unexpected, because Polymorph B, which can accommodate significant amounts of water in its crystal lattice, can be anticipated to be favored over anhydrous Polymorph A in an aqueous medium. Nevertheless, water is now found to be particularly suitable in forming the liquid phase for conversion of Polymorph B to Polymorph A. Conversion proceeds to near 100% completion and in high yields within commercially convenient time periods at temperatures not exceeding about 100° C. (i.e. the normal boiling point of water). […] Alternatively if Polymorph A is in high concentration in water, Polymorph A can be isolated by evaporation of the water.

[2] = Crystal form stability during long-term storage; format: physicochemical
From the text: (§1) A method has now been discovered for the preparation of a non-hydratable polymorph of Compound 1 (Polymorph A) from a hydratable polymorph of Compound 1 (Polymorph B) that typically is initially formed by procedures for preparing Compound 1. […] This surprising stability facilitates a more consistent assay of Compound 1. These characteristics also make Polymorph A of Compound 1 well suited for the production of long-lasting stable solid formulations, enabling specifying a stable active ingredient content.

[3] = Water uptake/loss on exposure to variations in atmospheric humidity; format: physicochemical
From the text: as §1

| Compound | Solubility in water [1] | Conversion to Polymorph B during long-term storage [2] | Change of water content on exposure to variations in atmospheric humidity [3] |
| --- | --- | --- | --- |
| CNC(=O)c1cc(C#N)cc(C)c1NC(=O)c1cc(Br)nn1-c1ncccc1Cl [Polymorph A, 3-bromo-1-(3-chloro-2-pyridinyl)-N-[4-cyano-2-methyl-6-[(methylamino)carbonyl]phenyl]-1H-pyrazole-5-carboxamide] | little solubility in water | does not typically convert to Polymorph B | does not gain or lose appreciable amounts of water |
| CNC(=O)c1cc(C#N)cc(C)c1NC(=O)c1cc(Br)nn1-c1ncccc1Cl [Polymorph B, 3-bromo-1-(3-chloro-2-pyridinyl)-N-[4-cyano-2-methyl-6-[(methylamino)carbonyl]phenyl]-1H-pyrazole-5-carboxamide] | – | – | changes significantly |
